From ChEMBL document CHEMBL4811243, “Design, synthesis, and biological evaluation of a novel dual peroxisome proliferator-activated receptor alpha/delta agonist for the treatment of diabetic kidney disease through anti-inflammatory mechanisms” (Eur J Med Chem, 2021) come the findings set out here.

The target in data set [1] is T1, Peroxisome proliferator-activated receptor gamma (Homo sapiens, UniProt P37231).
T1 sequence (P37231 whole entry): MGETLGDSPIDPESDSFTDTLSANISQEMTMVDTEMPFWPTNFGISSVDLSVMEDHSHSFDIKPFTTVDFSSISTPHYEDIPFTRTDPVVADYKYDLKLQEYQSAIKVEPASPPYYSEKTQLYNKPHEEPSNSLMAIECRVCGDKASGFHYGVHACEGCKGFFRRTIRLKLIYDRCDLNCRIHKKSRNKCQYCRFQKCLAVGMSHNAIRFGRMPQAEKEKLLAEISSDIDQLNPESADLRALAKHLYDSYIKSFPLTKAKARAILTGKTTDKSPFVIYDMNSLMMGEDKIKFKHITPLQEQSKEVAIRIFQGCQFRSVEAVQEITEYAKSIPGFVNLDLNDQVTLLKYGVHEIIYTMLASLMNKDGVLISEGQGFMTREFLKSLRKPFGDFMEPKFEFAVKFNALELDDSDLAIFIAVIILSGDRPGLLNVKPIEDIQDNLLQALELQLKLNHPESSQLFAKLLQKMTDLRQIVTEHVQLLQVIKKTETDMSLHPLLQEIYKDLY
Kind of data set: Agonist activity at human Gal4 fused PPARgamma LBD expressed in COS-7 cells incubated for 24 hrs by firefly luciferase reporter gene assay. The format is cell-based.

Data set [2] has as its target T2, Peroxisome proliferator-activated receptor alpha (Homo sapiens, UniProt Q07869).
T2 sequence (Q07869 whole entry): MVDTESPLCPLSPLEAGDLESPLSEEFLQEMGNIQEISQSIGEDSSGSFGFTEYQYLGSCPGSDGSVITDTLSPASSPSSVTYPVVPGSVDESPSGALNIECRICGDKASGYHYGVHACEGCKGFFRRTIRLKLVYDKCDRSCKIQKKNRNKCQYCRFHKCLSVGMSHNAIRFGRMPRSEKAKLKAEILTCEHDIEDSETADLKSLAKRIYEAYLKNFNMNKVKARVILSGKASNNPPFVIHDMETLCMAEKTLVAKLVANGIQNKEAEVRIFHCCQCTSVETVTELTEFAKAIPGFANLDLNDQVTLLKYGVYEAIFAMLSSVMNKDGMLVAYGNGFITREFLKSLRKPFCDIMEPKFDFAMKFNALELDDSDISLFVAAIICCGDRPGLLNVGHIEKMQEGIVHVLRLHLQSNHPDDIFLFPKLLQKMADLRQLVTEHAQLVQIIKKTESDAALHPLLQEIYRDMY
Kind of data set: Agonist activity at human Gal4 fused PPARalpha LBD expressed in COS-7 cells incubated for 24 hrs by firefly luciferase reporter gene assay. The format is cell-based.

A short description of data set [3]: Cytotoxicity against human GMCs assessed as reduction in cell viability at 1 to 30 uM after 48 hrs by CCK-8 assay. It counts as tissue-based. The note with it: glomerular mesangial cell, dose 1-30 µM. A general note: Tetrazolium dyes change colour on reduction, which living cells bring about.
In a further data set the test system is THP-1. The experiment in a line: Cytotoxicity against human THP-1 assessed as reduction in cell viability at 1 to 30 uM after 48 hrs by CCK-8 assay. The format is cell-based. The note with it: thp-1, 48 h, dose 1-30 µM.
The nature of data set [4]: Hepatotoxicity in STZ-induced Sprague-Dawley rat diabetic kidney disease model assessed as serum AST level at 25 to 50 mg/kg, po administered twice a day for 6 weeks. It counts as toxicity, organism-based. The note with it: in vivo, 1008 h, dose 25-50 mg/kg.
The nature of data set [5]: Hepatotoxicity in STZ-induced Sprague-Dawley rat diabetic kidney disease model assessed as serum ALT level at 25 to 50 mg/kg, po administered twice a day for 6 weeks. The format is toxicity, organism-based. The note with it: in vivo, 1008 h, dose 25-50 mg/kg.
The target in data set [6] is T3, Peroxisome proliferator-activated receptor delta (Homo sapiens, UniProt Q03181).
T3 sequence (Q03181 whole entry): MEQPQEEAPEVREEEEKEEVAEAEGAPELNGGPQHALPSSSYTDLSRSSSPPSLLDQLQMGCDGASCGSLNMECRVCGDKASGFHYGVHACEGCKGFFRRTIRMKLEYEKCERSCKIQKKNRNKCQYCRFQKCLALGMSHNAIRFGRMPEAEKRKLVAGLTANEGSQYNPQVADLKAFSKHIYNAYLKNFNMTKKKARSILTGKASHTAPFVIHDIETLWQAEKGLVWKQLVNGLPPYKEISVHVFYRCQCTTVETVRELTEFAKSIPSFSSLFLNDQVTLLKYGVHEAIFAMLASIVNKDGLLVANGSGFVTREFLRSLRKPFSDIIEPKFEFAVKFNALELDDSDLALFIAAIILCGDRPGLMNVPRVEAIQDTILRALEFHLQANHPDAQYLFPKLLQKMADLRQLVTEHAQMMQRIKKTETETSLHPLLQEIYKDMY
Kind of data set: Agonist activity at human Gal4 fused PPARdelta LBD expressed in COS-7 cells incubated for 24 hrs by firefly luciferase reporter gene assay. The format is cell-based. For orientation: Reporter assays use an easily measured gene product as a stand-in for the process of interest.

The EC50 is the concentration giving half of the maximal effect. A higher EC50 goes with lower potency in that assay. Molecule `Cc1cc(COc2ccc3c(c2)O/C(=C\c2ccccc2)C3=O)cc(C)c1OC(C)(C)C(=O)O` displayed an EC50 in data set [1] of over 10 µM.
`CSc1ccc(C(=O)/C=C/c2cc(C)c(OC(C)(C)C(=O)O)c(C)c2)cc1` [ELAFIBRANOR]: the EC50 in data set [2] is 0.76 µM; in data set [1] it was 2.79 µM.
In the case of `Cc1cc(COc2ccc3c(c2)O/C(=C\c2ccc(C(F)(F)F)cc2)C3=O)cc(C)c1OC(C)(C)C(=O)O`, the Activity result (in data set [3]; with THP-1; in data set [4]; in data set [5]) was “Non-Toxic” throughout.
As to `Cc1cc(COc2ccc3c(c2)O/C(=C\c2ccc(F)cc2)C3=O)cc(C)c1OC(C)(C)C(=O)O`, the EC50 in data set [6], in data set [2] and in data set [1] was over 10 µM each time.
Take `Cc1cc(COc2ccc3c(c2)O/C(=C\c2ccc(Cl)cc2)C3=O)cc(C)c1OC(C)(C)C(=O)O`: in data set [1], the 50% effective concentration (EC50) was over 10 µM.
As to `Cc1cc(COc2ccc3c(c2)O/C(=C\c2ccccc2C(F)(F)F)C3=O)cc(C)c1OC(C)(C)C(=O)O`, the EC50 in data set [1] was over 10 µM.
In data set [1], `Cc1cc(COc2ccc3c(c2)O/C(=C\c2ccc(C#N)cc2)C3=O)cc(C)c1OC(C)(C)C(=O)O` gave a 50% effective concentration (EC50) of over 10 µM.
As for `Cc1ccc(/C=C2\Oc3cc(OCc4cc(C)c(OC(C)(C)C(=O)O)c(C)c4)ccc3C2=O)cc1`, the concentration giving a half-maximal response (EC50) in data set [1] was over 10 µM.
`Cc1cc(COc2ccc3c(c2)O/C(=C\c2ccc(Br)cc2)C3=O)cc(C)c1OC(C)(C)C(=O)O` displayed a half-maximal effective concentration (EC50) in data set [1] of over 10 µM.
As for `CCOc1ccc(/C=C2\Oc3cc(OCc4cc(C)c(OC(C)(C)C(=O)O)c(C)c4)ccc3C2=O)cc1`, the half-maximal effective concentration (EC50) in data set [2] and in data set [1] was over 10 µM each time.
The molecule `Cc1cc(COc2ccc3c(c2)O/C(=C\c2ccc(C(C)C)cc2)C3=O)cc(C)c1OC(C)(C)C(=O)O` registered an EC50 in data set [1] of over 10 µM.
In data set [1], `Cc1cc(COc2ccc3c(c2)O/C(=C\c2ccc4ccccc4c2)C3=O)cc(C)c1OC(C)(C)C(=O)O` came in with an EC50 of over 10 µM.
For the molecule `COc1ccc(/C=C2\Oc3cc(OCc4cc(C)c(OC(C)(C)C(=O)O)c(C)c4)ccc3C2=O)cc1`, the EC50 in data set [2] and in data set [1] was over 10 µM each time.
